The structures appear in SMILES notation. Several values for one entry are separate records, joined by “and”; a condition that tells them apart may be missing. Equal entries are not always repeated. Structures can show the parent of a compound that is named as a salt.

The first series deals with rNHE3 (Rattus norvegicus, UniProt P26433). The series is described as follows: recovery of the intracellular pH (pHi) after acidification, BCECF fluorescence, NHE inhibition. It is filed as cell-based. As to conditions: pH recovery recorded for three minutes in the case of NHE3; bicarbonate-free conditions. The method, then: In this test, the recovery of the intracellular pH (pHi) after an acidification was determined which commences with functional NHE even under bicarbonate-free conditions. For this, the pHi was determined using the pH-sensitive fluorescent dye BCECF (Calbiochem, the precursor BCECF-AM was employed). The cells were first loaded with BCECF. The BCECF fluorescence was determined in a “Ratio Fluorescence Spectrometer” (Photon Technology International, South Brunswick, N.J., USA) at excitation wavelengths of 505 and 440 nm and an emission wavelength of 535 nm and converted into the pHi by means of calibration curves. The cells were incubated in NH4Cl buffer (pH 7.4) even in the case of BCECF loading (NH4Cl buffer: 115 mM NaCl, 20 mM NH4Cl, 5 mM KCl, 1 mM CaCl2, 1 mM MgSO4, 20 mM Hepes, 5 mM glucose, 1 mg/ml of BSA; a pH of 7.4 is set using 1 M NaOH). The intracellular acidification was induced by addition of 975 μl of an NH4Cl-free buffer (see below) to 25 μl aliquots of the cells incubated in NH4Cl buffer. The subsequent rate of pH recovery was recorded for two minutes in the case of NHE1, for five minutes in the case of NHE2, and for three minutes in the case of NHE3. For the calculation of the inhibitory potency of the substances tested, the cells were first investigated in buffers in which a complete pH recovery or no pH recovery at all took place. For the complete pH recovery (100%), the cells were incubated in Na+-containing buffer (133.8 mM NaCl, 4.7 mM KCl, 1.25 mM CaCl2, 1.25 mM MgCl2, 0.97 mM […], 0.23 mM […], 5 mM Hepes, 5 mM glucose; a pH of 7.0 is set using 1 M NaOH). For the determination of the 0% value, the cells were incubated in an Na+-free buffer (133.8 mM choline chloride, 4.7 mM KCl, 1.25 mM CaCl2, 1.25 mM MgCl2, 0.97 mM K2HPO4, 0.23 mM KH2PO4, 5 mM Hepes, 5 mM glucose; a pH of 7.0 is set using 1 M NaOH). The substances to be tested were applied in the Na+-containing buffer. The recovery of the intracellular pH at each tested concentration of a substance was expressed in percent of the maximum recovery. The IC value of the respective substance for the individual NHE subtypes was calculated from the percentage values of the pH recovery by means of the program Sigma-Plot.
rNHE3, sequence (P26433 29-831): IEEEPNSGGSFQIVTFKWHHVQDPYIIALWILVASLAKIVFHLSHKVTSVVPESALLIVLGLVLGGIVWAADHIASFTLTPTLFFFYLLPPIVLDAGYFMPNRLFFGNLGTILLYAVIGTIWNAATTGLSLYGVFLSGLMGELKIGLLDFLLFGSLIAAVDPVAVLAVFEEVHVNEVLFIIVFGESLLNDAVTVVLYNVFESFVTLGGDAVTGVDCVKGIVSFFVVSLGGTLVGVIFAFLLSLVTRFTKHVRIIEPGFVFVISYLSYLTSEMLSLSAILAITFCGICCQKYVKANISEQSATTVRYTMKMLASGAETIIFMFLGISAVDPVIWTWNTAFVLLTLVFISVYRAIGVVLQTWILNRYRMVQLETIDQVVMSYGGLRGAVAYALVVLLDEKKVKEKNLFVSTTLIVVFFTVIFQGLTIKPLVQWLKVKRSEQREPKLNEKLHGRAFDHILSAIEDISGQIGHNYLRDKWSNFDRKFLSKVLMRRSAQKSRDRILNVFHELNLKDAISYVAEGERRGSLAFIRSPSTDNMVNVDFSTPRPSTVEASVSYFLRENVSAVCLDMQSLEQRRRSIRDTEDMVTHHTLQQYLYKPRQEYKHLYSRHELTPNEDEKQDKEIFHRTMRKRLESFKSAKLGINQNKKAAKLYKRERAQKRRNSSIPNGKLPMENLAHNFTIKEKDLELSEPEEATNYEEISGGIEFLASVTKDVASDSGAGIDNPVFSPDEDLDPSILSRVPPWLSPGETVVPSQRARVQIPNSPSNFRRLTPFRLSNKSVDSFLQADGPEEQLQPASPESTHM
As to `Cl.Fc1cc(F)c2[nH]c(Nc3c(Cl)cccc3Cl)nc2c1` [Example 15, 2-(2,6-Dichlorophenylamino)-4,6-difluorobenzimidazole hydrochloride], inhibition was half-maximal at 1.6 µM (IC50).
The same measure, in the same setting: with `Cc1cccc(C)c1Nc1nc2ccccc2[nH]1` [Example 3, (1H-Benzimidazol-2-yl)-(2,6-dimethylphenyl)amine trifluoracetate] the figure was 0.64 µM.
On the same count and under the same terms, with `Fc1ccc2[nH]c(Nc3c(Cl)cccc3Cl)nc2c1` [Example 9, 2-(2,6-Dichlorophenylamino)-5-fluorobenzimidazole hydrochloride] the figure was 1 µM.
For `FC(F)(F)c1cccc(Cl)c1Nc1nc2ccccc2[nH]1` [Example 11, 2-(2-Trifluoromethyl-6-chlorophenylamino)benzimidazole hydrochloride], the IC50 worked out at 0.83 µM.
Same read-out and setting: under `Cl.Oc1cccc2[nH]c(Nc3c(Cl)cccc3Cl)nc12` [Example 2, 2-(2,6-Dichlorophenylamino)-1H-benzimidazol-4-ol Hydrochloride] stands 0.47 µM; under `Brc1cccc(Br)c1Nc1nc2ccccc2[nH]1` [Example 8, (1H-Benzimidazol-2-yl)-(2,6-dibromophenyl)amine trifluoroacetate], 0.65 µM; under `Clc1ccccc1Nc1nc2ccccc2[nH]1` [Example 16, (1H-Benzimidazol-2-yl)-(2-chlorophenyl)amine trifluoroacetate], 0.63 µM.
On the same count and under the same terms, with `Cl.Fc1cccc2nc(Nc3c(Cl)cccc3Cl)[nH]c12` [Example 10, 2-(2,6-Dichlorophenylamino)-4-fluorobenzimidazole hydrochloride] the figure was 3.2 µM.
`FC(F)(F)c1ccccc1Nc1nc2ccccc2[nH]1` [Example 17, (1H-Benzimidazol-2-yl)-(2-trifluoromethylphenyl)amine trifluoroacetate] gave an IC50 of 3.5 µM.
The same measure, in the same setting: with `Fc1cccc(Cl)c1Nc1nc2ccccc2[nH]1` [Example 7, (1H-Benzimidazol-2-yl)-(2-chloro-6-fluorophenyl)amine hydrochloride] the figure was 0.52 µM; with `Cl.Fc1ccc2nc(Nc3c(Cl)cccc3Cl)[nH]c2c1F` [Example 12, 2-(2,6-Dichlorophenylamino)-4,5-difluorobenzimidazole hydrochloride], 2.9 µM; with `Cc1cccc2[nH]c(Nc3c(Cl)cccc3Cl)nc12` [Example 6, (2,6-Dichlorophenyl)-(4-methyl-1H-benzimidazol-2-yl)amine trifluoracetate], 0.39 µM.
Still for that read-out and setting: under `Brc1ccccc1Nc1nc2ccccc2[nH]1` [Example 18, (1H-Benzimidazol-2-yl)-(2-bromophenyl)amine trifluoroacetate] stands 1.2 µM; under `Cc1cccc(Cl)c1Nc1nc2ccccc2[nH]1` [Example 4, (1H-Benzimidazol-2-yl)-(2-chloro-6-methylphenyl)amine hydrochloride], 0.49 µM; under `Oc1ccc2[nH]c(Nc3c(Cl)cccc3Cl)nc2c1` [Example 13, 2-(2,6-Dichlorophenylamino)-5-hydroxybenzimidazole hydrobromide], 1.1 µM.
On the same count and under the same terms, under `Clc1cccc(Cl)c1Nc1nc2ccccc2[nH]1` [Example 1, (1H-Benzimidazol-2-yl)-(2,6-dichlorophenyl)amine hydrochloride] stands 0.53 µM; under `Fc1cc2nc(Nc3c(Cl)cccc3Cl)[nH]c2cc1F` [Example 5, (2,6-Dichlorophenyl)-(5,6-difluoro-1H-benzimidazol-2-yl)amine hydrochloride], 0.78 µM; under `Cc1ccccc1Nc1nc2ccccc2[nH]1` [Example 19, (1H-Benzimidazol-2-yl)-o-tolylamine hydrochloride], 3.5 µM.
`Fc1c(F)c(F)c2[nH]c(Nc3c(Cl)cccc3Cl)nc2c1F` [Example 14, 2-(2,6-Dichlorophenylamino)-4,5,6,7-tetrafluorobenzimidazole hydrochloride] registered an IC50 of 5.6 µM.

Tested on in the next series: not given
Assay: not given
Conditions: not given
As for `Cl.Fc1cc(F)c2[nH]c(Nc3c(Cl)cccc3Cl)nc2c1` [Example 15, 2-(2,6-Dichlorophenylamino)-4,6-difluorobenzimidazole hydrochloride], the melting point is 310 to 314 °C.
Same read-out and setting: under `FC(F)(F)c1cccc(Cl)c1Nc1nc2ccccc2[nH]1` (as salt: hydrochloride) [Example 11, 2-(2-Trifluoromethyl-6-chlorophenylamino)benzimidazole hydrochloride] stands 255 to 288 °C.
`Cl.Oc1cccc2[nH]c(Nc3c(Cl)cccc3Cl)nc12` [Example 2, 2-(2,6-Dichlorophenylamino)-1H-benzimidazol-4-ol Hydrochloride] registered a melting point of 333 to 335 °C.
On the same count and under the same terms, under `Cl.Fc1cccc2nc(Nc3c(Cl)cccc3Cl)[nH]c12` [Example 10, 2-(2,6-Dichlorophenylamino)-4-fluorobenzimidazole hydrochloride] stands 268 to 296 °C; under `Cl.Fc1ccc2nc(Nc3c(Cl)cccc3Cl)[nH]c2c1F` [Example 12, 2-(2,6-Dichlorophenylamino)-4,5-difluorobenzimidazole hydrochloride], 232 to 234 °C and 228 to 230 °C; under `Fc1c(F)c(F)c2[nH]c(Nc3c(Cl)cccc3Cl)nc2c1F` (as salt: hydrochloride) [Example 14, 2-(2,6-Dichlorophenylamino)-4,5,6,7-tetrafluorobenzimidazole hydrochloride], 220 to 222 °C.
Turning to `Oc1ccc2[nH]c(Nc3c(Cl)cccc3Cl)nc2c1` (as salt: hydrobromid) [Example 13, 2-(2,6-Dichlorophenylamino)-5-hydroxybenzimidazole hydrobromide], the melting point was 265 to 269 °C.
Same read-out and setting: with `Fc1ccc2[nH]c(Nc3c(Cl)cccc3Cl)nc2c1` (as salt: hydrochloride) [Example 9, 2-(2,6-Dichlorophenylamino)-5-fluorobenzimidazole hydrochloride] the figure was 294 to 296 °C.

Broadly, the IC50 is the concentration at which inhibition is half-maximal. A high value points to a need for much substance. A word on the melting point: it is the temperature, or range, at which the solid turns liquid.

For the origin of these results see patent US6958357B2, “Substituted benzimidazoles, processes for their preparation, their use as medicaments, and medicaments comprising them” (Aventis Pharma Deutschland GmbH, priority 2000, dated 2005).
